Experimental data from paper PMC4603705, “A bioinspired peptide scaffold with high antibiotic activity and low in vivo toxicity” (Scientific Reports, 2015).
Values after ≈ are worked out from the molar mass of the structure shown. Values joined by “and” are separate entries in the source; they are usually repeats but may differ in a detail not shown here. Equal values may be shown once. Read-outs that look alike come from different tables or passages of the source.

How the values were obtained:
E. faecalis ATTC 29212 = experiment: microbe, parasite or virus in culture; assay type: cell-based, Enterococcus faecalis; conditions: Enterococcus faecalis, ATTC29212, read-out: MIC E. faecalis Wild type ATTC 29212
Procedure: Lipopeptide 39 was chosen for this, as it is known that long fatty acids tend to favor activity against Gram-positive bacteria in polymyxin analogs. […] In summary, new broad-spectrum antimicrobial lipopeptides were achieved.
(§1) MICs were measured after 18–20 h of incubation in sterile 96-well plates (Corning Costar 3598 microtiter plates) in Mueller Hinton Broth (MHB) culture medium, (Difco, USA), according to well known in vitro protocols. Bacterial strains in Table 1 were: P. aeruginosa ATTC 9027, E. coli ATTC 8739, S. aureus ATTC 6538, and E. faecalis ATTC 29212. MICs shown in table 4 were performed by Mary Conrad at Cubist Pharmaceuticals (Lexington, MA) in non-binding surface plates.

S. aureus ATTC 6538 = experiment: microbe, parasite or virus in culture; assay type: cell-based, Staphylococcus aureus; conditions: Staphylococcus aureus, ATTC6538, read-out: MIC S. aureus
Procedure: as §1

S. aureus = experiment: microbe, parasite or virus in culture; assay type: cell-based, Staphylococcus aureus; conditions: Staphylococcus aureus
Procedure: as §1

E. coli (ATCC 25922) [1] = experiment: Flow cytometry (PI membrane permeability, BOX membrane potential), E. coli; assay type: cell-based, Escherichia coli; conditions: 5 μg/mL
Procedure: The mechanism of action at the membrane level of our best candidate was studied using flow cytometry. To assess membrane permeability, a propidium iodide (PI) probe was used[43][44]. The fluorescence conferred by this probe is generally associated with cells that have lost their membrane integrity. The effect on membrane potential was evaluated with bis-(1,3-dibutylbarbituric acid) trimethine oxonol (BOX). Membrane depolarization leads to the incorporation of this anionic dye into the cell where it binds to lipid-rich intracellular compounds, resulting in an increase in fluorescence.
(§2) An overnight culture (12 to 16 h) of S. aureus (ATCC 29213) or E. coli (ATCC 25922) in Tryptic Soy Broth (TSB) was grown at 37 °C and 400 μL were added in 50 mL of tryptone water (∼10^7 bacteria/mL). The bacterial suspension was split into aliquots of 4-5 mL and treated with the peptides (at the MIC) for different incubation times at room temperature. Cells were collected by centrifugation (10000 rpm, 20 min) and resuspended in 1 mL of filtered Ringer’s solution.
A stock solution of propidium iodide (PI, 1 mg/mL, Molecular Probes) and bis-(1,3-dibutylbarbituric acid) trimethine oxonol (BOX, 250 μM, Sigma Aldrich) was prepared in distilled water. Portions (10 μL and 2 μL, respectively) were added to aliquots of cells (100 μL of each sample in 1 mL of Ringer’s solution) to give a final concentration of 10 μg/mL of PI and 0.5 μM for BOX.
Flow cytometric measurements were performed on a Gallios multi-colour flow cytometer instrument (Beckman Coulter, Inc, Fullerton, CA) set up with the 3-lasers 10 colors standard configuration. Excitation was done using a blue (488 nm) laser. Forward scatter (FS), side scatter (SS), green fluorescence (525/40 nm) from BOX and red fluorescence (620/30 nm) emitted by PI were collected using logarithmic scales. FS was used as the discriminating parameter. The single-cell bacterial population was selected on a forward-side scatter plot. Fluorescence was presented in a dot plot of BOX vs. PI. Three regions were defined on this graph according to the controls: depolarized, permeabilized and non-affected cells. Control cells (non-stained and single stained populations) were used to define these regions. 25,000 cells defined according to their scatter parameters were counted in each sample.

E. coli (ATCC 25922) [2] = experiment: Reduction of viability by plate count, E. coli; assay type: cell-based, Escherichia coli; conditions: 5 μg/mL
Procedure: as §2

[3] = no reference given, cited from earlier work
P. aeruginosa = system: P. aeruginosa
Procedure: (§3) Strains of E. coli and P. aeruginosa with resistance to quinolones and carbapenems as well as multi-drug-resistant bacteria were tested.
as §1

E. coli = system: E. coli
Procedure: as §3, §1

[4] = resistant to nalidixic acid, cotrimoxazole and ampicillin

CN[C@H](CC(C)C)C(=O)N[C@H]1C(=O)N[C@@H](CC(N)=O)C(=O)N[C@H]2C(=O)N[C@H]3C(=O)N[C@H](C(=O)N[C@H](C(=O)O)c4cc(O)cc(O)c4-c4cc3ccc4O)[C@H](O)c3ccc(c(Cl)c3)Oc3cc2cc(c3O[C@@H]2O[C@H](CO)[C@@H](O)[C@H](O)[C@H]2O[C@H]2C[C@](C)(N)[C@H](O)[C@H](C)O2)Oc2ccc(cc2Cl)[C@H]1O [Vancomycin]
MIC (E. faecalis ATTC 29212): 2 µg/mL (≈ 1.38 µM) | MIC (S. aureus ATTC 6538): 1 µg/mL (≈ 0.69 µM) | MIC (S. aureus; read-out: MIC S. aureus DR, MR SAU.1616): 2 µg/mL (≈ 1.38 µM) | MIC (S. aureus; read-out: MIC S. aureus DR, MS SAU.278): 2 µg/mL (≈ 1.38 µM) | MIC (S. aureus; read-out: MIC S. aureus MR ATTC 43300): 2 µg/mL (≈ 1.38 µM) | MIC (S. aureus; read-out: MIC S. aureus MR SAU.1118): 0.5 µg/mL (≈ 0.345 µM) | MIC (S. aureus; read-out: MIC S. aureus MS ATTC 29213): 0.5 to 1 µg/mL (≈ 0.345 to 0.69 µM)

PxB nonapeptide [PxBN]
% of stained cells BOX (E. coli (ATCC 25922) [1]; 30 min): 5% | % of stained cells PI (E. coli (ATCC 25922) [1]; 30 min): 10% | % of stained cells BOX (E. coli (ATCC 25922) [1]; 60 min): 3%-6% and 6% | % of stained cells PI (E. coli (ATCC 25922) [1]; 60 min): 3%-6% and 3% | % viability reduction (E. coli (ATCC 25922) [2]; 30 min): 0% | % viability reduction (E. coli (ATCC 25922) [2]; 60 min): 5%

Somatostatin
half-life ([3]; administered in vivo): 2 to 3 min

colistin [PxE, reference compound]
MIC P. aeruginosa 38a (P. aeruginosa; resistant to ceftazidime, ciprofloxacin, imipenem, piperacillin-tazobactam): 1 µg/mL | MIC P. aeruginosa 40b (P. aeruginosa; resistant to imipenem): 1 µg/mL | MIC E. coli NDM-1 (E. coli; highly-resistant, New Delhi metallo-beta-lactamase gene): 0.5 µg/mL | MIC E. coli VAL 5 (E. coli; resistant to nalidixic acid): 0.25 µg/mL | MIC E. coli MAC 21a (E. coli; [4]): 0.5 µg/mL | MIC E. coli VAL 10 (E. coli; [4]): 0.5 µg/mL

lanreotide [reference compound]
half-lives ([3]; metabolic degradation): 2 to 3 h
